Measurements from US5534522A, “(R)-(Z)-1-azabicyclo [2.2.1] heptan-3-one,O-[3-(3-methoxyphenyl)-2-propynyl] oxime maleate as a pharmaceutical agent” (Warner-Lambert Company, priority 1995, dated 1996).
Where a name gives a salt, the structure may show the parent alone. Read-outs that look alike come from different tables or passages of the source.

Assays:
[1] = Evaluation of acid addition salts (ease of formation and crystallinity); assay type: physicochemical; details: for Overall Salt Rating: based on ease of formation and crystallinity, salt of 1a (free base treated with acid); for isomer formation on recrystallization (words): EtOAc in Table III
Procedure: Many counter-ions were evaluated for salt-forming properties. The data presented in Table III answer the following questions: (1) did a solid salt precipitate from ether when free base 1a was treated with each acid?; (2) following collection of the salt by either filtration or evaporation of the ether, what solvents were used to crystallize the salt, and was a crystalline salt obtained from each solvent?; (3) melting point information; and (4) overall rating of each salt, based on considerations of ease of formation and crystallinity.

[2] = target: rat cerebral cortex muscarinic receptors; experiment: Muscarinic receptor binding, CMD (cis-methyldioxolane) agonist radioligand; details: for IC50: Table I
[3] = target: rat cerebral cortex muscarinic receptors; details: Table I; read-out: QNB Binding IC50
[4] = Refrigerated storage stability of free base; assay type: physicochemical; details: refrigerated at -4° C., up to several days
[5] = tested on: m1-subtype muscarinic receptors; details: cited from earlier work
[6] = tested on: hippocampally deficient mice; assay type: in vivo, mouse
Source text: This test measures the ability of a compound to decrease the amount of time needed by the mice to find a hidden platform in the water pool.
The graph represents two sets of experiments, each one with its own control group.

[7] = Hygroscopicity of salts of Compound 1a; assay type: physicochemical; details: for Hygroscopicity (% wt increase): RT, 81% RH for 16 days, crimped DSC pans; for moisture uptake / hygroscopicity in words: salts of Table IV
[8] = Stability of crystalline salts of 1a under accelerated stability conditions; assay type: physicochemical
Source text: Maleate and benzoate salts were recrystallized from ethyl acetate and t-butyl methyl ether, respectively. Xenon exposure with the Atlas SunChex set for 0.4±0.1 watts/m^2. Fluorescent exposure with 1000-±100-ft candles.

[9] = Aqueous solubility of crystalline salts of 1a; assay type: physicochemical; details: for solubility: water, room temp.
[10] = tested on: rat cerebral cortex muscarinic receptors; details: earlier publications, cited from earlier work
[11] = 1a versus isomer 1b, Tables II and III of Jaen reference
[12] = Xenon, 26 hours, 0.4±0.1 watts/m^2

In the case of COc1cccc(C#CCO/N=C2\CN3CC[C@@H]2C3)c1 [Fumarate (1 equi)], the “Overall Salt Rating” value [1] is reported as “Low”.
With COc1cccc(C#CCO/N=C2\CN3CC[C@@H]2C3)c1 [Stearate] the “Overall Salt Rating” value [1] was “Low”.
Compound COc1cccc(C#CCO/N=C2/CN3CCC2C3)c1 (centres unmarked) [(1c + 1d)] has an IC50 [2] of 150 nM and an IC50 [3] of 14800 nM.
For COc1cccc(C#CCO/N=C2\CN3CC[C@@H]2C3)c1 [Compound 1a, [R-(Z)]-1-azabicyclo [2.2.1]heptan-3-one, O-[3-(3-methoxyphenyl)-2-propynyl]oxime], the “decomposition or isomerization to 1c on storage” value [4] is given as “without noticeable decomposition or isomerization to produce 1c”, the m1 potency [5, 11] is given as “greater m1 potency than isomer 1b” and the “m1 receptor subtype selectivity” value [5, 11] is given as “greater m1 receptor subtype selectivity”. For the same compound, the “potency and efficacy as a muscarinic agonist (ratio of QNB to CMD binding)” value ([2]; 1a versus mixture of 1c/1d) was “more potent and more efficacious as a muscarinic agonist”, the IC50 [2] was 25 nM and the IC50 [3] was 5300 nM.
With COc1cccc(C#CCO/N=C2\CN3CC[C@@H]2C3)c1 [Oxalate] the “reduction of time required to find the platform” value ([6]; 1 mg/kg, first set of experiments (oxalate)) was “about 18 seconds”, the “Hygroscopicity (% wt increase)” value [7] was 6.38 ± 1.40 % wt and the “moisture uptake / hygroscopicity in words” value ([7]; listed as oxalate salt) was “less hygroscopic than the hydrochloride”.
With COc1cccc(C#CCO/N=C2\CN3CC[C@@H]2C3)c1 [Tartrate (D)-(-) (1 equi)] the “Overall Salt Rating” value [1] was “Low”.
For COc1cccc(C#CCO/N=C2\CN3CC[C@@H]2C3)c1 [Acetate], the “Overall Salt Rating” value [1] was “Low”.
For COc1cccc(C#CCO/N=C2\CN3CC[C@@H]2C3)c1 [Hydrochloride], the “Overall Salt Rating” value [1] was “High”, the “isomer formation on recrystallization (words)” value [1] was “E-Isomer Formation” and the “isomer formation on recrystallization (words)” value ([1]; listed as hydrochloride) was “difficult to recrystallize without converting 1a to 1c”. The “Hygroscopicity (% wt increase)” value [7] was 27.77 ± 0.40 % wt, the “moisture uptake / hygroscopicity in words” value ([7]; listed as HCl salt) was “took up water most rapidly and to the greatest extent” and the “moisture uptake / hygroscopicity in words” value ([7]; listed as hydrochloride salt) was “extremely hygroscopic”.
In the case of COc1cccc(C#CCO/N=C2\CN3CC[C@@H]2C3)c1 [Tartrate (L)-(+) (1 equi)], the “Overall Salt Rating” value [1] is reported as “Low”.
In the case of COc1cccc(C#CCO/N=C2\CN3CC[C@@H]2C3)c1 [Hydrobromide], the “Overall Salt Rating” value [1] is reported as “Low” and the “hygroscopicity of precipitated salt” value ([1]; precipitation from Et2O) is reported as “very hygroscopic”.
With COc1cccc(C#CCO/N=C2\CN3CC[C@@H]2C3)c1 [Malate] the “Overall Salt Rating” value [1] was “Low”.
With CCCC(=O)O.COc1cccc(C#CCON=C2CN3CCC2C3)c1 (centres unmarked) the “Overall Salt Rating” value [1] was “Low”.
For Nc1c2c(nc3ccccc13)CCCC2 [tacrine, reference compound], the “latency improvement, tacrine control group” value ([6]; tacrine in the maleate set of experiments) was 24 s and the “improvement of time to find the platform, positive control” value ([6]; tacrine in the oxalate set of experiments) was about 27 s.
With COc1cccc(C#CCO/N=C2\CN3CC[C@@H]2C3)c1 [ether-precipitated product] the “physical state under accelerated stability condition” value ([8]; 2 weeks, 40° C./75% RH) was “deliquescent”.
For COc1cccc(C#CCO/N=C2\CN3CC[C@H]2C3)c1 [Compound 1b], the muscarinic agonist activity ([5]; isomer 1b, could be due to small amounts of 1a) is given as “small amount of activity”.
With COc1cccc(C#CCO/N=C2\CN3CC[C@@H]2C3)c1 [Maleate, (R)-(Z)-1-azabicyclo[2.2.1]heptan-3-one,O-[3-(3-methoxyphenyl)-2-propynyl]oxime, (Z)-butenedioic acid, [1:1 salt]] the “solubility in water relative to 1a benzoate” value ([9]; 1a maleate versus 1a benzoate) was “about 15 times”, the solubility [9] was 89 mg/mL and the “Stability to light: presence of 1c” value ([8]; Fluorescence, 5.5 months, 1000-±100-ft candles) was “.largecircle”. The “Stability to light: presence of 1c” value [8, 12] was “.largecircle”, the latency improvement ([6]; 1 mg/kg, separate set of experiments (maleate)) was “about 20 seconds” and the “biological activity compared to other salts” value ([6]; water maze) was “no loss of biological activity”. The “Hygroscopicity (% wt increase)” value [7] was 0.32 ± 0.02 % wt and the “moisture uptake / hygroscopicity in words” value [7] was “the least”.
For COc1cccc(C#CCO/N=C2\CN3CC[C@@H]2C3)c1 [ethyl acetate recrystallized maleate salt], the “stability compared with ether-precipitated product” value ([8]; ethyl acetate recrystallized versus ether-precipitated) was “more stable”.
In the case of COc1cccc(C#CCON=C2CN3CCC2C3)c1 (centres unmarked) [Compound 1], the “affinity to rat cerebral cortex muscarinic receptors” value ([10]; rat cerebral cortex) is given as “high affinity”, the “ability to displace agonist radioligand (cis-methyldioxolane) at lower concentrations than those required to displace antagonist radioligand (quinuclidinyl benzilate)” value ([10]; ratio QNB/CMD) is given as 246 times and the “selective stimulation of m1-subtype muscarinic receptors” value ([5]; versus other non-m1 muscarinic receptors, earlier publications) is given as “selectively stimulate m1-subtype muscarinic receptors without significant stimulation of other non-m1 muscarinic receptors”.
With COc1cccc(C#CCO/N=C2\CN3CC[C@@H]2C3)c1 [Tartrate (D)-(-) (0.5 equi)] the “Overall Salt Rating” value [1] was “Low”.
With COc1cccc(C#CCO/N=C2\CN3CC[C@@H]2C3)c1 [Tartrate (L)-(+) (0.5 equi)] the “Overall Salt Rating” value [1] was “Low”.
With COc1cccc(C#CCO/N=C2\CN3CC[C@@H]2C3)c1 [L(+)-Lactate] the “Overall Salt Rating” value [1] was “Low”.
In the case of COc1cccc(C#CCO/N=C2\CN3CC[C@@H]2C3)c1 [Benzoate], the solubility [9] is reported as 6 mg/mL, the stability in words ([8]; 25° C./60% RH and 30° C./60% RH) is reported as “stable” and the “Stability: presence of 1c” value ([8]; 30° C./60% RH, 2 weeks) is reported as “.largecircle”. The “Stability to light: presence of 1c” value [8, 12] was “E (presence of 2%-4% 1c)” and the “Overall Salt Rating” value [1] was “High”.
For COc1cccc(C#CCO/N=C2\CN3CC[C@@H]2C3)c1 [Succinate], the “Overall Salt Rating” value [1] was “Low”.
In the case of COc1cccc(C#CCO/N=C2\CN3CC[C@@H]2C3)c1 [Fumarate (0.5 epui)], the “Overall Salt Rating” value [1] is reported as “Medium”.
In the case of COc1cccc(C#CCO/N=C2\CN3CC[C@@H]2C3)c1 [Benzene Sulfonae Sulphonate], the “Overall Salt Rating” value [1] is reported as “Low”.
